Results: PubChem BioAssay (NCI)
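Method: 48-hour compound exposure of cells in 96-well plates, five concentrations, linear interpolation of endpoints. GI50: concentration for 50% inhibition of growth. TGI: total growth inhibition.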

Legend:
Test in all cases: NCI anticancer screen, dose series, 48 h
ACHN renal = tested on: ACHN renal
HCT-15 colon = tested on: HCT-15 colon
UACC-257 melanoma = tested on: UACC-257 melanoma
M14 melanoma = tested on: M14 melanoma
CCRF-CEM leukemia = tested on: CCRF-CEM leukemia
HOP-92 NSCLC = tested on: HOP-92 NSCLC
SK-MEL-28 melanoma = tested on: SK-MEL-28 melanoma
NCI-H226 lung = tested on: NCI-H226 lung
OVCAR-4 ovarian = tested on: OVCAR-4 ovarian

Structure (SMILES): COc1ccc2c(c1OC)C(C(Cl)(Cl)Cl)N1CCc3cc4c(cc3C1=C2)OCO4 (stereo not drawn)
- TGI (ACHN renal): 65.1 µM
- TGI (HCT-15 colon): > 100 µM
- TGI (UACC-257 melanoma): 62.9 µM
- TGI (M14 melanoma): > 100 µM
- TGI (CCRF-CEM leukemia): 62.2 µM
- TGI (HOP-92 NSCLC): 84.7 µM
- TGI (SK-MEL-28 melanoma): 27.8 µM
- TGI (NCI-H226 lung): 70.1 µM
- TGI (OVCAR-4 ovarian): 69 µM

Structure (SMILES): O=S(=O)(N=NC=C1c2ccccc2N(O)c2ccccc21)c1ccc(Cl)cc1
- TGI (ACHN renal): > 100 µM
- TGI (HCT-15 colon): > 100 µM
- TGI (UACC-257 melanoma): > 100 µM
- TGI (M14 melanoma): > 100 µM
- TGI (CCRF-CEM leukemia): > 100 µM
- TGI (HOP-92 NSCLC): > 100 µM
- TGI (SK-MEL-28 melanoma): > 100 µM
- TGI (NCI-H226 lung): > 100 µM
- TGI (OVCAR-4 ovarian): > 100 µM

Structure (SMILES): CC(=O)NNc1nc(C)c(C(=O)/C=C/c2ccc(Cl)cc2)s1
- TGI (ACHN renal): > 100 µM
- TGI (UACC-257 melanoma): > 100 µM
- TGI (CCRF-CEM leukemia): > 100 µM
- TGI (HOP-92 NSCLC): > 100 µM
- TGI (SK-MEL-28 melanoma): > 100 µM

Structure (SMILES): COc1cc(C(=O)O[C@H](C(=O)NCCN(C)CCNC(=O)[C@@H](OC(=O)c2cc(OC)cc3c(C)cccc23)[C@]2(C)CO2)[C@]2(C)CO2)c2cccc(C)c2c1
- GI50 (HCT-15 colon): 0.0109 µM
- TGI (HCT-15 colon): 1.02 µM
- GI50 (UACC-257 melanoma): 0.416 µM
- TGI (UACC-257 melanoma): 2.38 µM
- GI50 (CCRF-CEM leukemia): < 0.01 µM
- GI50 (HOP-92 NSCLC): 0.0192 µM
- TGI (HOP-92 NSCLC): 0.173 µM
- GI50 (SK-MEL-28 melanoma): 0.171 µM
- TGI (SK-MEL-28 melanoma): 0.512 µM
- GI50 (NCI-H226 lung): 0.182 µM
- TGI (NCI-H226 lung): 0.721 µM
- GI50 (OVCAR-4 ovarian): 0.056 µM
- TGI (OVCAR-4 ovarian): 0.679 µM

Structure (SMILES): CC(C)=CC(=O)N[C@H]1CC[C@]2(C)C3CC[C@]4(C)C(C(C)N(C)C)=CCC4C3CCC2[C@H]1O (stereo partly drawn)
- GI50 (ACHN renal): 7.95 µM
- TGI (ACHN renal): 21.3 µM
- GI50 (HCT-15 colon): 1.55 µM
- TGI (HCT-15 colon): 4.2 µM
- GI50 (UACC-257 melanoma): 2.39 µM
- TGI (UACC-257 melanoma): 5.59 µM
- GI50 (M14 melanoma): 1.92 µM
- TGI (M14 melanoma): 3.74 µM
- GI50 (CCRF-CEM leukemia): 2.92 µM
- TGI (CCRF-CEM leukemia): 14.3 µM
- GI50 (HOP-92 NSCLC): 7.72 µM
- TGI (HOP-92 NSCLC): 22 µM
- GI50 (SK-MEL-28 melanoma): 1.82 µM
- TGI (SK-MEL-28 melanoma): 3.4 µM
- GI50 (NCI-H226 lung): 8.49 µM
- TGI (NCI-H226 lung): 25.7 µM
- GI50 (OVCAR-4 ovarian): 5.88 µM
- TGI (OVCAR-4 ovarian): 20.8 µM

Structure (SMILES): CN(C)CCCC1(c2ccc(F)cc2)OCc2cc(-c3cc4ccccc4s3)ccc21 (stereo not drawn)
- GI50 (ACHN renal): 1.66 µM
- TGI (ACHN renal): 3.02 µM
- GI50 (HCT-15 colon): 1.69 µM
- TGI (HCT-15 colon): 3.13 µM
- GI50 (UACC-257 melanoma): 1.8 µM
- TGI (UACC-257 melanoma): 3.27 µM
- GI50 (M14 melanoma): 1.59 µM
- TGI (M14 melanoma): 3.13 µM
- GI50 (HOP-92 NSCLC): 1.33 µM
- TGI (HOP-92 NSCLC): 2.95 µM
- GI50 (SK-MEL-28 melanoma): 1.81 µM
- TGI (SK-MEL-28 melanoma): 3.22 µM
- GI50 (OVCAR-4 ovarian): 1.94 µM
- TGI (OVCAR-4 ovarian): 3.52 µM

Structure (SMILES): N#CC(C#N)=Cc1ccc(CP(=O)(O)O)cc1
- TGI (ACHN renal): > 100 µM
- TGI (HCT-15 colon): > 100 µM
- TGI (UACC-257 melanoma): > 100 µM
- TGI (M14 melanoma): > 100 µM
- TGI (CCRF-CEM leukemia): > 100 µM
- TGI (HOP-92 NSCLC): > 100 µM
- TGI (SK-MEL-28 melanoma): > 100 µM
- TGI (NCI-H226 lung): > 100 µM
- TGI (OVCAR-4 ovarian): > 100 µM

Structure (SMILES): CC(C)C(=O)c1c(C(F)(F)F)n([O-])c2cc(F)c(F)cc2[n+]1=O
- GI50 (ACHN renal): 0.155 µM
- TGI (ACHN renal): 0.324 µM
- GI50 (HCT-15 colon): 0.147 µM
- TGI (HCT-15 colon): 0.309 µM
- GI50 (UACC-257 melanoma): 2.28 µM
- TGI (UACC-257 melanoma): 6.38 µM
- GI50 (M14 melanoma): 0.0708 µM
- TGI (M14 melanoma): 0.387 µM
- GI50 (CCRF-CEM leukemia): 0.0218 µM
- TGI (CCRF-CEM leukemia): > 100 µM
- GI50 (HOP-92 NSCLC): 0.191 µM
- TGI (HOP-92 NSCLC): 0.972 µM
- GI50 (SK-MEL-28 melanoma): 0.55 µM
- TGI (SK-MEL-28 melanoma): 3.15 µM
- GI50 (NCI-H226 lung): 1.26 µM
- TGI (NCI-H226 lung): 2.54 µM
- GI50 (OVCAR-4 ovarian): 0.842 µM
- TGI (OVCAR-4 ovarian): 2.89 µM

Structure (SMILES): CCCN(CCC)C(=O)c1nc(N)nc(-c2ccc(OC)cc2)c1-c1ccc(OC)cc1
- TGI (ACHN renal): > 100 µM
- TGI (HCT-15 colon): > 100 µM
- TGI (UACC-257 melanoma): > 100 µM
- TGI (M14 melanoma): > 100 µM
- TGI (CCRF-CEM leukemia): > 100 µM
- TGI (HOP-92 NSCLC): > 100 µM
- TGI (SK-MEL-28 melanoma): > 100 µM
- TGI (NCI-H226 lung): > 100 µM
- TGI (OVCAR-4 ovarian): > 100 µM

Structure (SMILES): COC1=CC(c2ccc[nH]2)=N/C1=C\c1[nH]c(C)c(CC(=O)OCc2ccccc2)c1C
- GI50 (ACHN renal): 0.296 µM
- TGI (ACHN renal): 0.886 µM
- GI50 (HCT-15 colon): 0.292 µM
- TGI (HCT-15 colon): 1.1 µM
- GI50 (UACC-257 melanoma): 0.605 µM
- TGI (UACC-257 melanoma): 2.24 µM
- GI50 (M14 melanoma): 0.233 µM
- TGI (M14 melanoma): 0.59 µM
- GI50 (CCRF-CEM leukemia): 0.184 µM
- TGI (CCRF-CEM leukemia): 1.94 µM
- GI50 (HOP-92 NSCLC): 0.244 µM
- TGI (HOP-92 NSCLC): 0.81 µM
- GI50 (NCI-H226 lung): 0.33 µM
- TGI (NCI-H226 lung): 2.31 µM
- GI50 (OVCAR-4 ovarian): 0.256 µM
- TGI (OVCAR-4 ovarian): 5.17 µM

Structure (SMILES): CCCCc1c2cnccc2c(CCCC)c2c1[nH]c1ccccc12
- TGI (ACHN renal): 30.6 µM
- TGI (HCT-15 colon): 46 µM
- TGI (UACC-257 melanoma): 36 µM
- TGI (M14 melanoma): 41.1 µM
- TGI (CCRF-CEM leukemia): 99 µM
- TGI (HOP-92 NSCLC): 47.7 µM
- TGI (SK-MEL-28 melanoma): 21.7 µM
- TGI (NCI-H226 lung): 34 µM
- TGI (OVCAR-4 ovarian): 29.8 µM

Structure (SMILES): CC(C(=O)c1ccccc1)C1(O)C(=O)Nc2ccc(Cl)cc21 (stereo not drawn)
- TGI (ACHN renal): > 100 µM
- TGI (HCT-15 colon): > 100 µM
- TGI (UACC-257 melanoma): > 100 µM
- TGI (M14 melanoma): > 100 µM
- TGI (HOP-92 NSCLC): > 100 µM
- TGI (SK-MEL-28 melanoma): > 100 µM
- TGI (NCI-H226 lung): > 100 µM
- TGI (OVCAR-4 ovarian): 77.8 µM

Structure (SMILES): COc1cc2c(cc1OC)C1Cc3ccc(OC)c(OC)c3C[N+]1([O-])CC2 (stereo not drawn)
- TGI (ACHN renal): > 100 µM
- TGI (UACC-257 melanoma): > 100 µM
- TGI (M14 melanoma): > 100 µM
- TGI (CCRF-CEM leukemia): > 100 µM
- TGI (SK-MEL-28 melanoma): > 100 µM
- TGI (OVCAR-4 ovarian): > 100 µM

Structure (SMILES): COc1cc(OC)c(OC)cc1/C=C/c1cnnc2ccccc12
- TGI (ACHN renal): > 10 µM
- TGI (HCT-15 colon): > 10 µM
- TGI (UACC-257 melanoma): > 10 µM
- TGI (M14 melanoma): > 10 µM
- TGI (CCRF-CEM leukemia): > 10 µM
- TGI (HOP-92 NSCLC): > 10 µM
- TGI (SK-MEL-28 melanoma): > 10 µM
- TGI (NCI-H226 lung): > 10 µM
- TGI (OVCAR-4 ovarian): > 10 µM

Structure (SMILES): O=C(Nc1ccccc1-c1nn(CN2CCNCC2)c(=S)n(CN2CCNCC2)c1=O)C(F)(F)F
- TGI (ACHN renal): 63.9 µM
- TGI (HCT-15 colon): 31.6 µM
- TGI (UACC-257 melanoma): 31 µM
- TGI (M14 melanoma): 31.1 µM
- TGI (CCRF-CEM leukemia): 45.2 µM
- TGI (HOP-92 NSCLC): 45.8 µM
- TGI (SK-MEL-28 melanoma): 33.2 µM
- TGI (NCI-H226 lung): 40.7 µM
- TGI (OVCAR-4 ovarian): 35.2 µM

Structure (SMILES): C/C(CC(=O)Nc1ccccc1C)=N/NS(=O)(=O)c1ccc(C)cc1
- TGI (ACHN renal): > 100 µM
- TGI (UACC-257 melanoma): > 100 µM
- TGI (M14 melanoma): > 100 µM
- TGI (CCRF-CEM leukemia): > 100 µM
- TGI (HOP-92 NSCLC): > 100 µM
- TGI (SK-MEL-28 melanoma): > 100 µM
- TGI (NCI-H226 lung): > 100 µM
